Our source for the inhibition values is article PMC6934184, “Selective DNA-PKcs inhibition extends the therapeutic index of localized radiotherapy and chemotherapy” (The Journal of Clinical Investigation, 2019).

The assay deals with T1, KIT A829P (Homo sapiens, UniProt P10721, A829P).
T1 construct: purchased Thermo Fisher Scientific (Life Technologies) SelectScreen
Nature of the assay: SelectScreen LanthaScreen. In kind it is binding. The conditions noted are these: read-out: % displacement. The gist of the method:
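NU5455 was profiled across the SelectScreen Broad panel of kinase activity and binding assays. Z'LYTE reactions such as CSF1R ran at apparent Km ATP, while the Adapta CAMK1 assay used ATP listed as 10. Values are given as percent.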
For orientation: In TR-FRET formats the signal depends on donor and acceptor labels being close together.

T1 sequence (P10721 26-976 A829P): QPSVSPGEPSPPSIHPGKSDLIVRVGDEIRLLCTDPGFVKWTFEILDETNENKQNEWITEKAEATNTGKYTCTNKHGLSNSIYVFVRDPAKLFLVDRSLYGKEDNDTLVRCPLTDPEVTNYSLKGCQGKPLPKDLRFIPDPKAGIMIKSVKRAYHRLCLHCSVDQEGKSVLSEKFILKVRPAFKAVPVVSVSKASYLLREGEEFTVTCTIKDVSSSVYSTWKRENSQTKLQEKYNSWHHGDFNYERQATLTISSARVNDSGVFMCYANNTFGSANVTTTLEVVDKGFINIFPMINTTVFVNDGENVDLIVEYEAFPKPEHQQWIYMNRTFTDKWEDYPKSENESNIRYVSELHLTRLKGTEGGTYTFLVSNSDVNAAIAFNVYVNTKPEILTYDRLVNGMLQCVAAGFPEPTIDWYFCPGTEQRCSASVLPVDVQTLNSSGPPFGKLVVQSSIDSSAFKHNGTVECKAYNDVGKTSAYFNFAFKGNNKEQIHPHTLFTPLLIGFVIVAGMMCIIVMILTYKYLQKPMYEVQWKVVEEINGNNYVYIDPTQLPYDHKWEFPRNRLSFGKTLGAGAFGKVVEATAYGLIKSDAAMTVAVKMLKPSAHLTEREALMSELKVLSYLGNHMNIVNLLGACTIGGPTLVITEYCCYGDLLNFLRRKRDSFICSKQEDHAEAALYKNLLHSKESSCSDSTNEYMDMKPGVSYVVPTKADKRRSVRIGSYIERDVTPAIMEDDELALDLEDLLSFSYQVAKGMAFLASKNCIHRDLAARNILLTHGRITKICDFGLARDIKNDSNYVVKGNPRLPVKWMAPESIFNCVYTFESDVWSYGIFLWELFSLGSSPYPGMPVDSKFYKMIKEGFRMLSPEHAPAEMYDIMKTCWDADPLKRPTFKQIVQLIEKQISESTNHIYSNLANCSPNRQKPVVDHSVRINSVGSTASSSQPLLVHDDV

Turning to `CN(C(=O)CN1CCOCC1)c1ccc2sc3c(-c4cccc5c(=O)cc(N6CC7CCC(C6)O7)oc45)cccc3c2c1` [NU5455], the inhibition at 1 µM is 0.7%.
